Format in all cases: in vivo, human
Data set [1] can be described thus: Incidence of hypophosphatemia / s-phosphate in randomized open-label trials IDA-04 and IDA-05. As to the method:
Two prospective randomized, open-label, comparative trials were performed comparing the incidence of hypophosphatemia in relation to treatment with iron isomaltoside (“IIM”, tradename Monofer®, Monoferric®) and ferric carboxymaltose (“FCM”, trade name Injectafer, Ferinject) in adult human subjects with iron deficiency anaemia.
The trial was a randomized, open-label, comparative trial. Subjects with Iron Deficiency Anaemia (IDA) were randomized 1:1 to one treatment course of one of the following treatments: • Group A: iron isomaltoside 1000 (Monofer®, Pharmacosmos, Holbok, Denmark, termed iron isomaltoside in the following), 1000 mg at baseline • Group B: ferric carboxymaltose (Ferinject®/Injectafer®, Vifor Inc, Switzerland), 750 mg at baseline and day 7, cumulative dose: 1500 mg
The primary endpoint was the incidence of hypophosphatemia (defined as s-phosphate <2 mg/dL) at any time from baseline to day 35. […]
The following safety laboratory assessments were analysed: • S-phosphate: inorganic phosphorous forms an ammonium phosphomolybdate complex having the formula (NH4)3[PO4](MoO3)12 with ammonium molybdate in the presence of sulfuric acid. The complex was determined photometrically in the ultraviolet region (340 nm) of the spectrum using the Roche Modular and Cobas Analyzer. • iFGF23 and cFGF23: the human intact FGF23 was measured by the 2nd generation Elisa kit manufactured by Immonotropics, Inc, San Clemente, CA. […] The human C-terminal FGF23 was measured by the Elisa kit manufactured by Immonotropics, Inc, San Clemente, CA. […] After evaporation under nitrogen, the residue was reconstituted and analyzed using Liquid Chromatography (LC) with Tandem Mass Spectrometric detection (MS/MS). […]

A short description of data set [2]: Fractional urinary phosphate excretion, spot urine, trials IDA-04/IDA-05. The conditions noted are these: FCM vs IIM. As for the experimental part:
The term “fractionary urinary excretion of phosphate (FEPi)” (sometimes abbreviated FEPO4) is a measure of how much phosphate is not re-absorbed from the pre-urine in the kidneys, i.e., how much phosphate ends up in the urine as a proportion of how much phosphate the subject has in the blood. It is calculated like this: FEPi=[PO4 (Urine)*Creatinine (Serum)]/[PO4 (Serum)*Creatinine (Urine)]*100. An FEPi of 10-20% (0.1-0.2 fraction) is usually considered to be normal; an FEPi <10% (<0.1 fraction) is usually considered to be low; and an FEPi >20% (>0.2 fraction) is usually considered to be high. Phosphate in urine is measured using the same methodology as for serum.
(§1) The trial was a randomized, open-label, comparative trial. Subjects with Iron Deficiency Anaemia (IDA) were randomized 1:1 to one treatment course of one of the following treatments: • Group A: iron isomaltoside 1000 (Monofer®, Pharmacosmos, Holbok, Denmark, termed iron isomaltoside in the following), 1000 mg at baseline • Group B: ferric carboxymaltose (Ferinject®/Injectafer®, Vifor Inc, Switzerland), 750 mg at baseline and day 7, cumulative dose: 1500 mg […]

Data set [3] can be described thus: Respiratory muscles strength (MIP and MEP), trials IDA-04/IDA-05. The conditions noted are these: relative to the comparator IV iron treatment. As to the method: as §1
The measurements of MIP and MEP provided a non-invasive clinical method for evaluating the strength of respiratory muscles, and it was the most widely used test to assess muscle pressures [ATS/ERS statement, 2002]. […] MIP and MEP were measured by MicroRPM (CareFusion Germany 234 GmbH, Hoechberg, Germany). […]

Where [4] appears, read: FCM 750 mg at baseline and day 7 vs JIM 1000 mg at baseline, subjects with IDA, baseline to day 35.

The values that follow come from patent US20260091015A1, “TREATING IRON DEFICIENCY WITH FERRIC CARBOXYMALTOSE” (PHARMACOSMOS HOLDING A/S, priority 2018, published 2026).

As for ferric carboxymaltose [FCM], in data set [1] (setting [4]), the “rate of hypophosphatemia, moderate to severe form with serum phosphate below 2 mg/dL” value is listed as “significantly higher” and the “rate of hypophosphatemia, severe form of serum phosphate at or below 1.0 mg/dL” value is on record as “significantly higher”. For the same substance, in data set [1] (after FCM treatment), the serum phosphate entry is “decrease”. For the same substance, in data set [2], the “Fractional urinary excretion of phosphate” value was “significantly increased”. In addition, the “respiratory muscle strength (maximal inspiratory and/or expiratory pressure)” value in data set [3] is listed as “reduced”.
